“And” between values parts separate entries of the source, which are not always exact repeats. Equal entries are not always repeated.
Experiment: Mouse pharmacokinetic (PK) study, parent compound and psilocin metabolite in plasma
Assay type: in vivo, C57Bl/6 mice
Conditions: for bioavailability: male, C57Bl/6, mouse, plasma, po, no footnote on basis (Table 36B)
Description: Briefly, the procedure was as follows. […] 19, 2022.

[1] = administered compound itself in plasma, 1 mg/kg i.v., individual animals, 1 mg/kg
[2] = administered compound itself in plasma, 1 mg/kg i.v., mean ± SD
[3] = administered compound itself in plasma, 1 mg/kg oral, individual animals, 1 mg/kg
[4] = administered compound itself in plasma, 1 mg/kg oral, mean ± SD
[5] = administered compound itself in plasma, 3 mg/kg oral, individual animals, 3 mg/kg
[6] = administered compound itself in plasma, 3 mg/kg oral, mean ± SD
[7] = plasma C(XX), 3 mg/kg p.o. C(XX), mean
[8] = plasma C(XX), 10 mg/kg oral C(XX), animals M58-M60, 10 mg/kg
[9] = plasma C(XX), 10 mg/kg oral C(XX), mean (n = 2)
[10] = plasma C(XX), 10 mg/kg oral C(XX), mean ± SD
[11] = plasma C(XX), 10 mg/kg oral C(XX), mean ± SD, 10 mg/kg

Q: Which C0 [1] does the source give for CN(C)CCc1c[nH]c2cccc(OC(=O)c3cccc4c3OCCO4)c12 [C(XX)] here?
A: 204 ng/mL and 139 ng/mL

Q: And the CL [1]?
A: 266.52 mL/min/kg and 346.28 mL/min/kg

Q: And the MRT0-inf [1]?
A: 22 min and 25.7 min

Q: And the Vss [1]?
A: 5.874 L/kg and 8.913 L/kg

Q: And the AUC0-inf/Dose [2]?
A: 53.0 ± 8.26 kg·ng·h/mL/mg

Q: And the AUC0-tlast/Dose [2]?
A: 52.8 ± 8.30 kg·ng·h/mL/mg

Q: And the MRT0-inf [2]?
A: 24.7 ± 2.27 min

Q: And the Cmax [3]?
A: 0.509 ng/mL and 0.648 ng/mL

Q: And the Cmax/Dose [3]?
A: 0.702 kg·ng/mL/mg and 0.509 kg·ng/mL/mg and 0.648 kg·ng/mL/mg

Q: And the tmax [3]?
A: 15 min

Q: What about the Cmax [4] of the same compound?
A: 0.620 ± 0.0996 ng/mL

Q: And the Cmax/Dose [4]?
A: 0.620 ± 0.0996 kg·ng/mL/mg

Q: What about the AUC0-inf [5] of the same compound?
A: 1.72 ng·h/mL and 1.53 ng·h/mL

Q: And the AUC0-inf/Dose [5]?
A: 0.433 kg·ng·h/mL/mg and 0.572 kg·ng·h/mL/mg and 0.510 kg·ng·h/mL/mg

Q: And the AUC0-tlast [5]?
A: 1.48 ng·h/mL and 1.42 ng·h/mL

Q: And the AUC0-tlast/Dose [5]?
A: 0.406 kg·ng·h/mL/mg and 0.494 kg·ng·h/mL/mg and 0.474 kg·ng·h/mL/mg

Q: What about the “Apparent t1/2” value [5] of the same compound?
A: 40.1 min and 28.9 min

Q: What about the Cmax [5] of the same compound?
A: 1.72 ng/mL and 1.93 ng/mL

Q: And the Cmax/Dose [5]?
A: 0.497 kg·ng/mL/mg and 0.573 kg·ng/mL/mg and 0.643 kg·ng/mL/mg

Q: What about the MRT0-inf [5] of the same compound?
A: 64.8 min and 49.4 min

Q: What about the AUC0-inf [6] of the same compound?
A: 1.51 ± 0.210 ng·h/mL

Q: And the AUC0-inf/Dose [6]?
A: 0.505 ± 0.0700 kg·ng·h/mL/mg

Q: And the AUC0-tlast [6]?
A: 1.37 ± 0.137 ng·h/mL

Q: And the AUC0-tlast/Dose [6]?
A: 0.458 ± 0.0457 kg·ng·h/mL/mg

Q: And the Cmax [6]?
A: 1.71 ± 0.220 ng/mL

Q: And the Cmax/Dose [6]?
A: 0.571 ± 0.0734 kg·ng/mL/mg

Q: And the bioavailability (3 mg/kg, 3 mg/kg oral, individual animals)?
A: 0.816%

Q: And the bioavailability (3 mg/kg, 3 mg/kg oral, mean ± SD)?
A: 0.953 ± 0.132%

Q: And the AUC0-tlast/Dose (plasma C(XX), 1 mg/kg i.v. C(XX), mean)?
A: 52.8 kg·ng·h/mL/mg

Q: What about the Cmax/Dose (plasma C(XX), 1 mg/kg p.o. C(XX), mean) of the same compound?
A: 0.620 kg·ng/mL/mg

Q: And the AUC0-tlast/Dose [7]?
A: 0.458 kg·ng·h/mL/mg

Q: And the Cmax/Dose [7]?
A: 0.571 kg·ng/mL/mg

Q: What about the F [7] of the same compound?
A: 0.953%

Q: And the tmax (plasma C(XX), 10 mg/kg oral C(XX), animals M58-M60)?
A: 15 min

Q: And the AUC0-inf [8]?
A: 5.40 ng·h/mL and 10.7 ng·h/mL

Q: What about the AUC0-tlast [8] of the same compound?
A: 5.65 ng·h/mL and 4.99 ng·h/mL and 9.16 ng·h/mL

Q: And the AUC0-tlast/Dose [8]?
A: 0.565 kg·ng·h/mL/mg and 0.499 kg·ng·h/mL/mg and 0.916 kg·ng·h/mL/mg

Q: What about the F (plasma C(XX), 10 mg/kg oral C(XX), animals M58-M60, AUC0-tlast used, 10 mg/kg) of the same compound?
A: 1.07% and 0.941% and 1.73%

Q: And the AUC0-inf [9]?
A: 8.03 ng·h/mL

Q: What about the “Apparent t1/2” value [9] of the same compound?
A: 186 min

Q: And the MRT0-inf [9]?
A: 131 min

Q: What about the AUC0-tlast [10] of the same compound?
A: 6.60 ± 2.24 ng·h/mL

Q: And the Cmax [10]?
A: 7.47 ± 3.92 ng/mL

Q: And the tmax [10]?
A: 15 ± 0 min

Q: What about the AUC0-tlast/Dose [11] of the same compound?
A: 0.660 ± 0.224 kg·ng·h/mL/mg and 0.660 kg·ng·h/mL/mg

Q: What about the Cmax/Dose [11] of the same compound?
A: 0.747 ± 0.392 kg·ng/mL/mg and 0.747 kg·ng/mL/mg

Q: What about the F (plasma C(XX), 10 mg/kg oral C(XX), mean ± SD, AUC0-tlast used, 10 mg/kg) of the same compound?
A: 1.24 ± 0.423% and 1.24%

Reference: patent US12065404B2, “C4-carboxylic acid-substituted tryptamine derivatives and methods of using” (priority 2022, dated 2024)
